Data reported in paper PMC8286840, “Identifying SARS-CoV-2 antiviral compounds by screening for small molecule inhibitors of Nsp3 papain-like protease” (Biochemical Journal, 2021).
Counter-ions that a name gives are not always drawn. Like-named read-outs stand apart in the source and are kept apart here.

Columns and labels:
[1] = molecular target: T1, SARS-CoV-2 PLpro (nsp3 1564–1878) (Severe acute respiratory syndrome coronavirus 2, UniProt P0DTD1); test: biochemical; design: FRET-quenched peptide (Pro3) cleavage by PLpro, 10 min pre-incubation, slope over 20 min, normalised to no-compound control; details: low concentration screen, read-out: % of control remaining
[2] = molecular target: T1, SARS-CoV-2 PLpro (nsp3 1564–1878); test: biochemical; design: FRET-quenched peptide (Pro3) cleavage by PLpro, 10 min pre-incubation, slope over 20 min, normalised to no-compound control; details: high concentration screen, read-out: % of control remaining

Question: What does the source list for `COC(=O)[C@@H]1[C@H]2C[C@H]3c4[nH]c5ccccc5c4CCN3C[C@@H]2CC[C@@H]1O`?
Answer: remaining activity at 1.25 µM ([1]; Well no.=3378): 86.8%; remaining activity at 3.75 µM ([2]; Well no.=1699): 103%; remaining activity at 3.75 µM ([2]; Well no.=3378): 87.3%

Question: Which results are given for `CCCCC/C=C\C/C=C\C/C=C\C/C=C\CCCC(=O)C(F)(F)F` [AACOCF3]?
Answer: remaining activity at 1.25 µM ([1]; Well no.=4486): 102%; remaining activity at 3.75 µM ([2]; Well no.=4486): 102%

Question: How did the remaining activity at 1.25 µM ([1]; Well no.=862) turn out when `CN1C(C(=O)Nc2ccccn2)=C(O)c2ccccc2S1(=O)=O` [Piroxicam] was run?
Answer: Its remaining activity at 1.25 µM is 99.8%.

Question: And the remaining activity at 1.25 µM ([1]; Well no.=1566)?
Answer: Its remaining activity at 1.25 µM is 98.4%.

Question: What about the remaining activity at 3.75 µM ([2]; Well no.=862) of the same compound?
Answer: The remaining activity at 3.75 µM was 103%.

Question: And the remaining activity at 3.75 µM ([2]; Well no.=1566)?
Answer: The remaining activity at 3.75 µM was 99.8%.

Question: For `COc1ccccc1N1CCNCC1` [1-(2-Methoxyphenyl)piperazine hydrochloride], which remaining activity at 1.25 µM ([1]; Well no.=1181) is on record?
Answer: The remaining activity at 1.25 µM was 104%.

Question: What about the remaining activity at 3.75 µM ([2]; Well no.=1181) of the same compound?
Answer: Its remaining activity at 3.75 µM is 102%.

Question: `OCCOCCN1CCN(C(c2ccccc2)c2ccccc2)CC1` [Decloxizine (dihydrochloride)] was tested. Which remaining activity at 1.25 µM ([1]; Well no.=8189) did it give?
Answer: The remaining activity at 1.25 µM was 102%.

Question: And the remaining activity at 3.75 µM ([2]; Well no.=8189)?
Answer: The remaining activity at 3.75 µM was 103%.

Question: Which remaining activity at 1.25 µM ([1]; Well no.=4531) does the source give for `CCCCCCCN[C@H]1CCC[C@@H]1CCCCCCC(=O)O` (racemic) here?
Answer: The remaining activity at 1.25 µM was 95.3%.

Question: And the remaining activity at 3.75 µM ([2]; Well no.=4531)?
Answer: The remaining activity at 3.75 µM was 98%.

Question: `OC[C@@H](O)[C@@H](O)[C@H](O)[C@H](O)CO` [D-Mannitol] was tested. Which remaining activity at 1.25 µM ([1]; Well no.=6397) did it give?
Answer: Its remaining activity at 1.25 µM is 104%.

Question: And the remaining activity at 1.25 µM ([1]; Well no.=8434)?
Answer: The remaining activity at 1.25 µM was 96.7%.

Question: And the remaining activity at 3.75 µM ([2]; Well no.=6397)?
Answer: Its remaining activity at 3.75 µM is 96.4%.

Question: And the remaining activity at 3.75 µM ([2]; Well no.=8434)?
Answer: The remaining activity at 3.75 µM was 96.1%.

Question: With `NCCc1c[nH]cn1` [Histamine dihydrochloride] as the compound, how does the remaining activity at 1.25 µM ([1]; Well no.=564) read?
Answer: Its remaining activity at 1.25 µM is 103%.

Question: What about the remaining activity at 3.75 µM ([2]; Well no.=564) of the same compound?
Answer: Its remaining activity at 3.75 µM is 101%.

Question: With `Cc1nc2n(c(=O)c1CCN1CCC(c3noc4cc(F)ccc34)CC1)CCCC2` [Risperidone] as the compound, how does the remaining activity at 1.25 µM ([1]; Well no.=1306) read?
Answer: Its remaining activity at 1.25 µM is 103%.

Question: And the remaining activity at 1.25 µM ([1]; Well no.=1606)?
Answer: The remaining activity at 1.25 µM was 100%.

Question: And the remaining activity at 3.75 µM ([2]; Well no.=1306)?
Answer: The remaining activity at 3.75 µM was 103%.

Question: What about the remaining activity at 3.75 µM ([2]; Well no.=1606) of the same compound?
Answer: The remaining activity at 3.75 µM was 102%.

Question: With `NC(CP(=O)(O)O)C(=O)O` (racemic) as the compound, how does the remaining activity at 1.25 µM ([1]; Well no.=303) read?
Answer: The remaining activity at 1.25 µM was 99.2%.

Question: What about the remaining activity at 3.75 µM ([2]; Well no.=303) of the same compound?
Answer: Its remaining activity at 3.75 µM is 100%.

Question: What does the source list for `CC(C)=CCC/C(C)=C/CC/C(C)=C/CSc1ccccc1C(=O)O` [Salirasib]?
Answer: remaining activity at 1.25 µM ([1]; Well no.=6668): 104%; remaining activity at 3.75 µM ([2]; Well no.=6668): 105%

Question: Which remaining activity at 1.25 µM ([1]; Well no.=5766) does the source give for `COC(=O)c1cnn(-c2ccc(F)cc2F)c1/C=N/NC(=S)NC(C)(C)C` [ML194] here?
Answer: The remaining activity at 1.25 µM was 99.4%.

Question: What about the remaining activity at 3.75 µM ([2]; Well no.=5766) of the same compound?
Answer: Its remaining activity at 3.75 µM is 95.8%.

Question: What does the source list for `Cn1c(=O)c2c(nc(/C=C/c3cccc(Cl)c3)n2C)n(C)c1=O` [8-(3-Chlorostyryl)caffeine]?
Answer: remaining activity at 1.25 µM ([1]; Well no.=727): 100%; remaining activity at 3.75 µM ([2]; Well no.=727): 97.2%

Question: With `Cc1ccc(S(=O)(=O)N2CCC[C@H]2c2ccc(F)cc2)cc1` [Ro 67-7476] as the compound, how does the remaining activity at 1.25 µM ([1]; Well no.=8053) read?
Answer: The remaining activity at 1.25 µM was 99.6%.

Question: What about the remaining activity at 3.75 µM ([2]; Well no.=8053) of the same compound?
Answer: Its remaining activity at 3.75 µM is 102%.

Question: How did the remaining activity at 1.25 µM ([1]; Well no.=4236) turn out when `CC1(COc2ccc(CC3SC(=O)NC3=O)cc2)CCCCC1` (centres unmarked) [Ciglitazone] was run?
Answer: Its remaining activity at 1.25 µM is 110%.

Question: What about the remaining activity at 3.75 µM ([2]; Well no.=4236) of the same compound?
Answer: The remaining activity at 3.75 µM was 107%.

Question: With `COc1cc2c(c(OC)c1OC)-c1c(cc(OC)c(OC)c1OC)C[C@](C)(O)[C@@H](C)C2` [Schisandrin] as the compound, how does the remaining activity at 1.25 µM ([1]; Well no.=5408) read?
Answer: Its remaining activity at 1.25 µM is 95.6%.

Question: And the remaining activity at 3.75 µM ([2]; Well no.=5408)?
Answer: Its remaining activity at 3.75 µM is 101%.

Question: Which remaining activity at 1.25 µM ([1]; Well no.=4851) does the source give for `Clc1ccc2nsnc2c1NC1=NCCN1` [Tizanidine HCl] here?
Answer: The remaining activity at 1.25 µM was 101%.

Question: And the remaining activity at 3.75 µM ([2]; Well no.=4851)?
Answer: The remaining activity at 3.75 µM was 99.7%.

Question: For `NC(=O)N1c2ccccc2CC(=O)c2ccccc21` [Oxcarbazepine], which remaining activity at 1.25 µM ([1]; Well no.=2053) is on record?
Answer: The remaining activity at 1.25 µM was 103%.

Question: What about the remaining activity at 3.75 µM ([2]; Well no.=2053) of the same compound?
Answer: Its remaining activity at 3.75 µM is 104%.

Question: `CCN1CCc2nc(N)oc2CC1` [B-HT 933 dihydrochloride] was tested. Which remaining activity at 1.25 µM ([1]; Well no.=87) did it give?
Answer: The remaining activity at 1.25 µM was 102%.

Question: What about the remaining activity at 3.75 µM ([2]; Well no.=87) of the same compound?
Answer: Its remaining activity at 3.75 µM is 105%.

Question: How did the remaining activity at 1.25 µM ([1]; Well no.=5103) turn out when `Nc1ncn([C@H]2C[C@H](O)[C@@H](CO)O2)c(=O)n1` [Decitabine] was run?
Answer: Its remaining activity at 1.25 µM is 102%.

Question: What about the remaining activity at 3.75 µM ([2]; Well no.=5103) of the same compound?
Answer: Its remaining activity at 3.75 µM is 99.8%.

Question: With `CCC(COC(=O)c1cc(OC)c(OC)c(OC)c1)(c1ccccc1)N(C)C` (centres unmarked) [Trimebutine] as the compound, how does the remaining activity at 1.25 µM ([1]; Well no.=4762) read?
Answer: Its remaining activity at 1.25 µM is 103%.

Question: What about the remaining activity at 3.75 µM ([2]; Well no.=4762) of the same compound?
Answer: Its remaining activity at 3.75 µM is 105%.

Question: With `CCOC(=O)[C@H](CCc1ccccc1)N[C@H]1CS[C@H](c2cccs2)CN(CC(=O)O)C1=O` [Temocapril HCl] as the compound, how does the remaining activity at 1.25 µM ([1]; Well no.=4764) read?
Answer: The remaining activity at 1.25 µM was 106%.

Question: What about the remaining activity at 3.75 µM ([2]; Well no.=4764) of the same compound?
Answer: Its remaining activity at 3.75 µM is 109%.

Question: Which remaining activity at 1.25 µM ([1]; Well no.=4739) does the source give for `Cc1cnc(-c2cc(N3CCN(C(=O)CCS(C)(=O)=O)CC3)ncc2Cl)c(C)c1` [PF-5274857] here?
Answer: The remaining activity at 1.25 µM was 99.5%.

Question: What about the remaining activity at 3.75 µM ([2]; Well no.=4739) of the same compound?
Answer: The remaining activity at 3.75 µM was 102%.
